In ChEMBL document CHEMBL5120776, “Asymmetric Total Synthesis of Griseofamine B and Its Three Stereoisomers” (2022):

Assays:
Type in all cases: functional
Staphylococcus aureus [1] = assay: Antibacterial activity against Staphylococcus aureus ATCC 29213 assessed as inhibition of bacterial growth incubated for 18 hrs by two-fold dilution assay
Staphylococcus aureus [2] = assay: Antibacterial activity against Staphylococcus aureus […] assessed as inhibition of bacterial growth incubated for 18 hrs by two-fold dilution assay
Staphylococcus aureus [3] = assay: Antibacterial activity against methicillin-resistant Staphylococcus aureus ATCC 33591 assessed as inhibition of bacterial growth incubated for 18 hrs by two-fold dilution assay
Staphylococcus aureus [4] = assay: Antibacterial activity against methicillin-resistant Staphylococcus aureus […] assessed as inhibition of bacterial growth incubated for 18 hrs by two-fold dilution assay
[5] = tested on: Staphylococcus epidermidis; assay: Antibacterial activity against Staphylococcus epidermidis ATCC 12228 assessed as inhibition of bacterial growth incubated for 18 hrs by two-fold dilution assay
[6] = tested on: Staphylococcus epidermidis; assay: Antibacterial activity against methicillin-resistant Staphylococcus epidermidis clinical isolate 16-5 assessed as inhibition of bacterial growth incubated for 18 hrs by two-fold dilution assay
Enterococcus faecalis [7] = assay: Antibacterial activity against Enterococcus faecalis ATCC 29212 assessed as inhibition of bacterial growth incubated for 18 hrs by two-fold dilution assay
Enterococcus faecalis [8] = assay: Antibacterial activity against vancomycin-resistant Enterococcus faecalis ATCC 51299 assessed as inhibition of bacterial growth incubated for 18 hrs by two-fold dilution assay
Escherichia coli = assay: Antibacterial activity against Escherichia coli ATCC 25922 assessed as inhibition of bacterial growth incubated for 18 hrs by two-fold dilution assay
Enterococcus faecium [9] = assay: Antibacterial activity against vancomycin-resistant Enterococcus faecium ATCC 700221 assessed as inhibition of bacterial growth incubated for 18 hrs by two-fold dilution assay
Enterococcus faecium [10] = assay: Antibacterial activity against Enterococcus faecium clinical isolate 16-5 assessed as inhibition of bacterial growth incubated for 18 hrs by two-fold dilution assay

Measured: MIC

CC(C)=C[C@@H]1c2cccc3[nH]cc(c23)C[C@H]2C(=O)/C(=C(\C)O)C(=O)N12
≥ 64 µg/mL: all assays above

CC(C)=C[C@H]1c2cccc3[nH]cc(c23)C[C@@H]2C(=O)/C(=C(\C)O)C(=O)N21
≥ 64 µg/mL: all assays above

CC(C)=C[C@H]1c2cccc3[nH]cc(c23)C[C@H]2C(=O)/C(=C(\C)O)C(=O)N21
≥ 64 µg/mL: all assays above

CC(C)=C[C@@H]1c2cccc3[nH]cc(c23)C[C@@H]2C(=O)/C(=C(\C)O)C(=O)N21
≥ 64 µg/mL: all assays above
